Data: publication PMC10305115, “Development of a Minimalistic Physiologically Based Pharmacokinetic (mPBPK) Model for the Preclinical Development of Spectinamide Antibiotics” (Pharmaceutics, 2023)
Read-outs that look alike come from different tables or passages of the source.

Legend:
[1] = healthy rats, plasma, IV SD 10 mg/kg
Description: After the successful inter-route extrapolation of the model, we scaled the PBPK model between species by extending the model to rats. This was accomplished by incorporating the physiological parameters of a 225 g rat and updating the experimentally assessed drug-specific parameters k(b/p) and fu.

[2] = Simcyp multicompartment lung and granuloma model simulation; settings: Simcyp model input parameter (Table S1), human PBPK model
[3] = Rat (225 g); Sprague-Dawley blood, 37 °C, 1 h
Description: (§3) Fresh blood was collected from BALB/c mice and Sprague-Dawley rats via cardiac puncture in tubes with lithium heparin as anticoagulant. Hematocrit was measured using a VetScan HM5 hematology analyzer (Abaxis, Union City, CA, USA). […] Aliquots of pre-warmed whole blood and plasma were spiked with the test compounds and incubated at 37 °C. After 1 h of incubation, the incubated whole blood was removed, and the plasma was separated by centrifugation. Aliquots of the incubated control plasma were also removed after 1 h of incubation. Plasma samples were treated with 8 volumes of ice-cold methanol containing internal standard (100 ng/mL spectinomycin) and analyzed for drug concentrations by LC-MS/MS [12].
(§4) The whole blood to plasma ratio k(b/p) was calculated by taking the ratio of the concentrations measured in the control plasma over the concentrations measured in the plasma centrifuged from the incubated whole blood, as shown in Equation (2). The erythrocyte to plasma partitioning coefficient k(RBC/p) was calculated from the whole blood to plasma ratio by accounting for the measured hematocrit, as shown in Equation (3):(2) k(b/p)=CCP/CP (3) k(RBC/p)=1+1/HCCP/CP−1 where CCP is the concentration of the test compound in the control plasma, CP is the concentration of the test compound in the plasma centrifuged from the incubated whole blood, and H is the measured hematocrit value.

[4] = healthy rats, plasma, IV SD 10 mg/kg; cited from earlier work
[5] = test system: murine-lung-derived dendritic cells and a BALB/c-derived monocyte macrophage cell line; settings: cited from earlier work
plasma proteins [6] = assay: Plasma protein binding by equilibrium dialysis (RED device), mouse plasma; assay type: in vitro ADME, BALB/c mice
Description: (§1) Plasma protein binding was measured by equilibrium dialysis using a RED device (8 kDa molecular cutoff; Thermo Scientific, Rockford, IL, USA) containing plasma and buffer chambers for dialysis and a base plate. Two concentrations (0.5 and 5 mg/L) of 1599 and 1810 were prepared in mouse plasma from BALB/c mice and rat plasma from Sprague-Dawley rats, and an aliquot of 300 µL was added in the plasma chamber in duplicate. A 500 µL aliquot of PBS was added in the buffer chamber for dialysis. Then, the base plate was covered with sealing tape and incubated at 37 °C at approximately 100 rpm on an orbital shaker for 4 h to achieve equilibrium. After incubation, 50 µL of each sample was pipetted from the plasma and buffer chambers into separate micro-centrifuge tubes. A total of 50 µL of plasma was added to the buffer samples and an equal volume of PBS to the collected plasma samples and vortexed. Samples were processed by protein precipitation and analyzed for bound and unbound drug concentrations by liquid chromatography-tandem mass spectrometry (LC-MS/MS). Ranitidine (0.5 and 5 mg/L) was included as a positive control. The fraction of compound unbound to plasma proteins (fu) was calculated from the measured concentrations in the plasma and buffer chambers using the following equation:(1) fu=1−C(Plasma Chamber)−C(Buffer Chamber)/C(Plasma Chamber)

[7] = Mouse (20 g); BALB/c blood, 37 °C, 1 h
Description: as §3, §4

[8] = Subcutaneous PBPK model predictions vs observed plasma concentrations in Mtb infected mice; assay type: in vivo, BALB/c mice; settings: SC dose-ranging and dose-fractionation studies
[9] = cited from earlier work; for AUCinf Liver Observed / AUCinf Lung Observed / AUCinf Observed / AUCinf Spleen Observed: healthy mice; for AUCinf Observed: plasma
plasma proteins [10] = assay: Plasma protein binding by equilibrium dialysis (RED device), rat plasma; assay type: in vitro ADME, Sprague-Dawley rats; settings: 0.5 and 5 mg/L, 37 °C, 4 h
Description: as §1

ELF proteins [11] = assay: Fraction unbound in epithelial lining fluid calculated by Poulin and Theil equation, rat; settings: calculated from fu in plasma and albumin ratio plasma/ELF
Description: (§2) For intravenous administration, the bolus dose was assumed to be mixed instantaneously into the venous blood. For subcutaneous administration, the dose was administered as an external compartment, absorbed into the venous compartment via a first-order absorption rate constant and a bioavailability component. For intrapulmonary aerosol administration, we have modified the lung tissue by adding the epithelial lining fluid (ELF) sub-compartment, as shown in Figure 2. The physiological volume of the ELF sub-compartment was obtained from the literature. The dose was administered as an external compartment, absorbed into the ELF compartment via a first-order absorption rate constant and a bioavailability component. The compound was assumed to be bound to the ELF proteins, and only the unbound fraction was distributed to the other sub-compartments of the lungs and ultimately to the systemic circulation. The fraction unbound in ELF was calculated from the fraction unbound in plasma and the albumin ratio between plasma and ELF using the equation described by Poulin and Theil.

[12] = Minimalistic PBPK model, mouse (fitting and simulation); settings: for F Bioavailability component / Ka 1st order absorption rate constant / AUCinf Liver Fold Difference / AUCinf Lung Fold Difference / AUCinf Fold Difference (predicted vs observed) / AUCinf Spleen Fold Difference: healthy mice; for AUCinf Fold Difference (predicted vs observed): plasma
[13] = Parallel artificial membrane permeability assay (PAMPA); assay type: in vitro ADME; settings: passive permeability could not be determined
ELF proteins [14] = assay: Fraction unbound in epithelial lining fluid calculated by Poulin and Theil equation, mouse; settings: calculated from fu in plasma and albumin ratio plasma/ELF
Description: as §2

[15] = Integrated mouse and rat PBPK model, inter-animal variability; settings: Intravenous Estimate (%RSE); simultaneous fit of mouse and rat plasma and tissue data
[16] = Intratracheal Estimate (%RSE), intrapulmonary aerosol single dose 50 mg/kg
[17] = Intravenous Estimate (%RSE), model fitted to IV single dose 10 mg/kg plasma and tissue data

CN[C@@H]1[C@H](O)[C@H](NC)[C@H]2O[C@]3(O)[C@H](O[C@@H]2[C@H]1O)O[C@H](C)C[C@H]3NC(=O)Cc1ccc(Cl)cn1 [Spectinamide 1599, 2-(5-chloroypyridin-2-yl)-N-((2R,4R,4aS,5aR,6S,7S,8R,9S,9aR, 10aS)-4a,7,9-trihydroxy-2-methyl-6,8-bis(methyl-amino)decahydro-2H-benzo[b]pyrano [2,3-e] [1,4]dioxin-4-yl)acetamide]
AUCinf Fold Difference (predicted vs observed) [1]: 1.58
CLR renal clearance [2]: 3.27 L/h
k(b/p) blood to plasma ratio [3]: 0.812
AUCinf Observed [4]: 19800 ng·h/mL
intracellular uptake [5]: concentration-dependent intracellular uptake
fuPlasma fraction unbound in plasma (plasma proteins [6]; Mouse plasma, 0.5 and 5 mg/L, 37 °C, 4 h): 0.602
plasma protein binding (plasma proteins [6]; mouse and rat): low plasma protein binding
k(b/p) blood to plasma ratio [7]: 0.552
difference in pharmacokinetics between healthy and infected mice [8]: no significant difference
dose dependency of disposition ([9]; dose range of 10 to 400 mg/kg in mice): did not suggest any dose dependencies
AUCinf Liver Observed ([9]; IV QD5 10 mg/kg): 19.6 µg·h/g
AUCinf Liver Observed ([9]; IV SD 10 mg/kg): 19.9 µg·h/g
AUCinf Liver Observed ([9]; SC QD5 200 mg/kg): 336 µg·h/g
AUCinf Liver Observed ([9]; SC SD 50 mg/kg): 91.8 µg·h/g
AUCinf Lung Observed ([9]; IV QD5 10 mg/kg): 4.05 µg·h/g
AUCinf Lung Observed ([9]; IV SD 10 mg/kg): 3.79 µg·h/g
AUCinf Lung Observed ([9]; SC QD5 200 mg/kg): 69.1 µg·h/g
AUCinf Lung Observed ([9]; SC SD 50 mg/kg): 19.1 µg·h/g
AUCinf Observed ([9]; IPA BIW 50 mg/kg): 14200 ng·h/mL
AUCinf Observed ([9]; IPA BIW 150 mg/kg): 108000 ng·h/mL
AUCinf Observed ([9]; IPA QD5 10 mg/kg): 3570 ng·h/mL
AUCinf Observed ([9]; IPA QD5 50 mg/kg): 39800 ng·h/mL
AUCinf Observed ([9]; IPA QD5 150 mg/kg): 96900 ng·h/mL
AUCinf Observed ([9]; IPA SD 10 mg/kg): 5510 ng·h/mL
AUCinf Observed ([9]; IPA SD 50 mg/kg): 23200 ng·h/mL
AUCinf Observed ([9]; IPA SD 150 mg/kg): 59500 ng·h/mL
AUCinf Observed ([9]; IPA TIW 10 mg/kg): 5360 ng·h/mL
AUCinf Observed ([9]; IPA TIW 50 mg/kg): 24300 ng·h/mL
AUCinf Observed ([9]; IPA TIW 150 mg/kg): 61700 ng·h/mL
AUCinf Observed ([9]; IV QD5 10 mg/kg): 6370 ng·h/mL
AUCinf Observed ([9]; IV SD 10 mg/kg): 7520 ng·h/mL
AUCinf Observed ([9]; SC QD5 200 mg/kg): 227000 ng·h/mL
AUCinf Observed ([9]; SC SD 50 mg/kg): 40400 ng·h/mL
AUCinf Spleen Observed ([9]; IV QD5 10 mg/kg): 3.91 µg·h/g
AUCinf Spleen Observed ([9]; IV SD 10 mg/kg): 3.42 µg·h/g
AUCinf Spleen Observed ([9]; SC QD5 200 mg/kg): 110 µg·h/g
AUCinf Spleen Observed ([9]; SC SD 50 mg/kg): 23.6 µg·h/g
fuPlasma fraction unbound in plasma (plasma proteins [10]): 0.563
fuELF fraction unbound in epithelial lining fluid (ELF proteins [11]): 0.940
estimated absorption half-life ([12]; IPA administration site, mice): ~ 8 min
bioavailability ([12]; IPA administration, mice): 33%
F Bioavailability component [12, 16]: 0.33 (2.03)
Ka 1st order absorption rate constant [12, 16]: 5.03 (4.53)
KC→IKidney 1st order back flux from cellular sub compartment of the kidney [12, 17]: 0.15 (31.0) 1/h
KC→ILiver 1st order back flux from cellular sub compartment of the liver [12, 17]: 0.061 (13.7) 1/h
KC→ILung 1st order back flux from cellular sub compartment of the lung [12, 17]: 0.028 (41.5) 1/h
KC→ISpleen 1st order back flux from cellular sub compartment of the spleen [12, 17]: 0.01 (106) 1/h
KC→Iothers 1st order back flux from cellular sub compartment of the other tissues [12, 17]: 7.0 × 10^−5 (142) 1/h
F Bioavailability component ([12]; Subcutaneous Estimate (%RSE)): 0.86 (6.15)
Ka 1st order absorption rate constant ([12]; Subcutaneous Estimate (%RSE)): 4.36 (7.86)
AUCinf Liver Fold Difference ([12]; IV QD5 10 mg/kg): 1.58
AUCinf Liver Fold Difference ([12]; IV SD 10 mg/kg): 1.2
AUCinf Liver Fold Difference ([12]; SC QD5 200 mg/kg): 1.55
AUCinf Liver Fold Difference ([12]; SC SD 50 mg/kg): 1.3
AUCinf Lung Fold Difference ([12]; IV QD5 10 mg/kg): 1.39
AUCinf Lung Fold Difference ([12]; IV SD 10 mg/kg): 1.65
AUCinf Lung Fold Difference ([12]; SC QD5 200 mg/kg): 1.42
AUCinf Lung Fold Difference ([12]; SC SD 50 mg/kg): 1.41
AUCinf Fold Difference (predicted vs observed) ([12]; IPA BIW 50 mg/kg): 1.70
AUCinf Fold Difference (predicted vs observed) ([12]; IPA BIW 150 mg/kg): 1.49
AUCinf Fold Difference (predicted vs observed) ([12]; IPA QD5 10 mg/kg): 1.36
AUCinf Fold Difference (predicted vs observed) ([12]; IPA QD5 50 mg/kg): 1.64
AUCinf Fold Difference (predicted vs observed) ([12]; IPA QD5 150 mg/kg): 1.33
AUCinf Fold Difference (predicted vs observed) ([12]; IPA SD 10 mg/kg): 1.13
AUCinf Fold Difference (predicted vs observed) ([12]; IPA SD 50 mg/kg): 1.05
AUCinf Fold Difference (predicted vs observed) ([12]; IPA SD 150 mg/kg): 1.23
AUCinf Fold Difference (predicted vs observed) ([12]; IPA TIW 10 mg/kg): 1.11
AUCinf Fold Difference (predicted vs observed) ([12]; IPA TIW 50 mg/kg): 1.00
AUCinf Fold Difference (predicted vs observed) ([12]; IPA TIW 150 mg/kg): 1.18
AUCinf Fold Difference (predicted vs observed) ([12]; IV QD5 10 mg/kg): 1.39
AUCinf Fold Difference (predicted vs observed) ([12]; IV SD 10 mg/kg): 1.18
AUCinf Fold Difference (predicted vs observed) ([12]; SC QD5 200 mg/kg): 1.43
AUCinf Fold Difference (predicted vs observed) ([12]; SC SD 50 mg/kg): 1.02
AUCinf Spleen Fold Difference ([12]; IV QD5 10 mg/kg): 1.44
AUCinf Spleen Fold Difference ([12]; IV SD 10 mg/kg): 1.47
AUCinf Spleen Fold Difference ([12]; SC QD5 200 mg/kg): 1.14
AUCinf Spleen Fold Difference ([12]; SC SD 50 mg/kg): 1.11
estimated first-order absorption half-life ([12]; subcutaneous administration site, mice): ~ 10 min
bioavailability ([12]; subcutaneous administration, mice): 86%
PAMPA concentrations in the acceptor compartment [13]: below the limit of detection
fuELF fraction unbound in epithelial lining fluid (ELF proteins [14]): 0.948
ω KI→CLiver inter-animal variability on KI→CLiver [15]: 0.61 (29.8)
ω KI→CLung inter-animal variability on KI→CLung [15]: 0.87 (30.6)
ω KI→COther inter-animal variability on KI→COthers [15]: 0.48 (21.6)
ω KI→CSpleen inter-animal variability on KI→CSpleen [15]: 0.66 (41.0)
